Test system: 624824-186-R-J2-PDC multicell spheroids, viability
Experiment: Anticancer human tumor 624824-186-R-J2-PDC patient-derived colon adenocarcinoma cell line growth inhibition [PI3K]
Details: for IC50: curve of first compound; for viability, T/C: stronger effect = lower value; active = viability on the fitted dose curve at most 10% of control; inactive = the rest
Outline: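 Targeted small molecules plus PI3K inhibitors, half-log dose series from Cmax (default top 10 microM), were applied to heterotypic spheroids of cancer cells with HUVEC and MSCs. Viability indicated growth inhibition.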

[1] = second compound 0.0316 µM, first compound 0.0316 µM
[2] = second compound 0.0316 µM, first compound 0.1 µM
[3] = second compound 0.0316 µM, first compound 0.316 µM
[4] = second compound 0.0316 µM, first compound 1 µM
[5] = second compound 0.0316 µM, first compound 3.16 µM
[6] = second compound 0.0316 µM, first compound 10 µM
[7] = second compound 0.1 µM, first compound 0.0316 µM
[8] = second compound 0.1 µM, first compound 0.1 µM
[9] = second compound 0.1 µM, first compound 0.316 µM
[10] = second compound 0.1 µM, first compound 1 µM
[11] = second compound 0.1 µM, first compound 3.16 µM
[12] = second compound 0.1 µM, first compound 10 µM
[13] = second compound 0.316 µM, first compound 0.0316 µM
[14] = second compound 0.316 µM, first compound 0.1 µM
[15] = second compound 0.316 µM, first compound 0.316 µM
[16] = second compound 0.316 µM, first compound 1 µM
[17] = second compound 0.316 µM, first compound 3.16 µM
[18] = second compound 0.316 µM, first compound 10 µM
[19] = second compound 1 µM, first compound 0.0316 µM
[20] = second compound 1 µM, first compound 0.1 µM
[21] = second compound 1 µM, first compound 0.316 µM
[22] = second compound 1 µM, first compound 1 µM
[23] = second compound 1 µM, first compound 3.16 µM
[24] = second compound 1 µM, first compound 10 µM
[25] = second compound 3.16 µM, first compound 0.0316 µM
[26] = second compound 3.16 µM, first compound 0.1 µM
[27] = second compound 3.16 µM, first compound 0.316 µM
[28] = second compound 3.16 µM, first compound 1 µM
[29] = second compound 3.16 µM, first compound 3.16 µM
[30] = second compound 3.16 µM, first compound 10 µM
[31] = second compound 10 µM, first compound 0.0316 µM
[32] = second compound 10 µM, first compound 0.1 µM
[33] = second compound 10 µM, first compound 0.316 µM
[34] = second compound 10 µM, first compound 1 µM
[35] = second compound 10 µM, first compound 3.16 µM
[36] = second compound 10 µM, first compound 10 µM
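Also: spheroids exposed to agents for 7 days before viability read.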
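For viability, T/C in this document: 100% = DMSO vehicle treated spheroids.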

Cn1ncc(Cl)c1-c1cc(C(=O)NC(CN)Cc2cccc(F)c2)sc1Cl (stereo unspecified) + CC(Nc1ncnc2nc[nH]c12)c1cc2cccc(Cl)c2c(=O)n1-c1ccccc1
9.49 µM: IC50 (second compound 0.1 µM)
7.07 µM: IC50 (second compound 1 µM)
9.26 µM: IC50 (second compound 10 µM)
inactive: viability, T/C [1] 73.9% | viability, T/C [2] 85.7% | viability, T/C [3] 71.5% | viability, T/C [4] 68.3% | viability, T/C [5] 57.2% | viability, T/C [6] 55.1% | viability, T/C [7] 80.1% | viability, T/C [8] 67.8% | viability, T/C [9] 80.7% | viability, T/C [10] 73% | viability, T/C [11] 67.6% | viability, T/C [12] 49.2% | viability, T/C [13] 95.3% | viability, T/C [14] 86.4% | viability, T/C [15] 67% | viability, T/C [16] 69% | viability, T/C [17] 63.6% | viability, T/C [18] 47.8% | viability, T/C [19] 82.1% | viability, T/C [20] 95.8% | viability, T/C [21] 71% | viability, T/C [22] 78.2% | viability, T/C [23] 62.3% | viability, T/C [24] 44.2% | viability, T/C [25] 79.9% | viability, T/C [26] 91.6% | viability, T/C [27] 78.8% | viability, T/C [28] 70.2% | viability, T/C [29] 69.8% | viability, T/C [30] 50.6% | viability, T/C [31] 104% | viability, T/C [32] 73.2% | viability, T/C [33] 89.7% | viability, T/C [34] 68.7% | viability, T/C [35] 64.1% | viability, T/C [36] 47.1%
> 10 µM: IC50 (second compound 0.0316 µM) | IC50 (second compound 0.316 µM) | IC50 (second compound 3.16 µM)

Cn1nccc1Nc1nccc(-c2ccn(C(CO)c3ccc(Cl)c(F)c3)c(=O)c2)n1 (stereo unspecified) + CC(Nc1ncnc2nc[nH]c12)c1cc2cccc(Cl)c2c(=O)n1-c1ccccc1
> 10 µM: IC50 (second compound 0.0316 µM) | IC50 (second compound 0.1 µM) | IC50 (second compound 0.316 µM) | IC50 (second compound 1 µM) | IC50 (second compound 3.16 µM) | IC50 (second compound 10 µM)
inactive: viability, T/C [1] 73.9% | viability, T/C [2] 61.6% | viability, T/C [3] 72.4% | viability, T/C [4] 76.7% | viability, T/C [5] 87.6% | viability, T/C [6] 85.4% | viability, T/C [7] 110% | viability, T/C [8] 83.8% | viability, T/C [9] 78% | viability, T/C [10] 74.7% | viability, T/C [11] 82.4% | viability, T/C [12] 89.6% | viability, T/C [13] 90.7% | viability, T/C [14] 94% | viability, T/C [15] 59.5% | viability, T/C [16] 66.1% | viability, T/C [17] 82.1% | viability, T/C [18] 83.7% | viability, T/C [19] 96% | viability, T/C [20] 87.4% | viability, T/C [21] 67.8% | viability, T/C [22] 74.2% | viability, T/C [23] 80.3% | viability, T/C [24] 79.7% | viability, T/C [25] 106% | viability, T/C [26] 70.2% | viability, T/C [27] 61.9% | viability, T/C [28] 77.7% | viability, T/C [29] 75.5% | viability, T/C [30] 63.7% | viability, T/C [31] 82.1% | viability, T/C [32] 90.2% | viability, T/C [33] 85.9% | viability, T/C [34] 70.8% | viability, T/C [35] 67.8% | viability, T/C [36] 61%

Cn1ncnc1[C@H]1c2n[nH]c(=O)c3cc(F)cc(c23)N[C@@H]1c1ccc(F)cc1 + CC(Nc1ncnc2nc[nH]c12)c1cc2cccc(Cl)c2c(=O)n1-c1ccccc1
inactive: viability, T/C (second compound 0.0316 µM, first compound 0.000316 µM) 82.5% | viability, T/C (second compound 0.0316 µM, first compound 0.001 µM) 85.3% | viability, T/C (second compound 0.0316 µM, first compound 0.00316 µM) 87.6% | viability, T/C (second compound 0.0316 µM, first compound 0.01 µM) 89% | viability, T/C [1] 75.7% | viability, T/C [2] 86% | viability, T/C (second compound 0.1 µM, first compound 0.000316 µM) 94.6% | viability, T/C (second compound 0.1 µM, first compound 0.001 µM) 85% | viability, T/C (second compound 0.1 µM, first compound 0.00316 µM) 89.5% | viability, T/C (second compound 0.1 µM, first compound 0.01 µM) 94.1% | viability, T/C [7] 82.8% | viability, T/C [8] 103% | viability, T/C (second compound 0.316 µM, first compound 0.000316 µM) 115% | viability, T/C (second compound 0.316 µM, first compound 0.001 µM) 102% | viability, T/C (second compound 0.316 µM, first compound 0.00316 µM) 96.5% | viability, T/C (second compound 0.316 µM, first compound 0.01 µM) 87.5% | viability, T/C [13] 110% | viability, T/C [14] 86.2% | viability, T/C (second compound 1 µM, first compound 0.000316 µM) 72.6% | viability, T/C (second compound 1 µM, first compound 0.001 µM) 90.8% | viability, T/C (second compound 1 µM, first compound 0.00316 µM) 81.7% | viability, T/C (second compound 1 µM, first compound 0.01 µM) 89.4% | viability, T/C [19] 81.4% | viability, T/C [20] 97.8% | viability, T/C (second compound 3.16 µM, first compound 0.000316 µM) 91.1% | viability, T/C (second compound 3.16 µM, first compound 0.001 µM) 94% | viability, T/C (second compound 3.16 µM, first compound 0.00316 µM) 94.2% | viability, T/C (second compound 3.16 µM, first compound 0.01 µM) 92.1% | viability, T/C [25] 83.5% | viability, T/C [26] 78.1% | viability, T/C (second compound 10 µM, first compound 0.000316 µM) 88.5% | viability, T/C (second compound 10 µM, first compound 0.001 µM) 85.6% | viability, T/C (second compound 10 µM, first compound 0.00316 µM) 106% | viability, T/C (second compound 10 µM, first compound 0.01 µM) 106% | viability, T/C [31] 100% | viability, T/C [32] 88.4%
> 0.1 µM: IC50 (second compound 0.0316 µM) | IC50 (second compound 0.1 µM) | IC50 (second compound 0.316 µM) | IC50 (second compound 1 µM) | IC50 (second compound 3.16 µM) | IC50 (second compound 10 µM)

Reference: PubChem BioAssay AID1963975 (Molecular Pharmacology Branch, DTP, NCI, 2024)
